Where “and” joins values, the source holds several entries; their conditions need not be identical. Equal entries are not always repeated.
Settings: Liquid, Transpiration method

CCCCCCC(=O)OC [methyl heptanoate]
Settings	vapor or sublimation pressure [kPa]
278.1 K	0.03453
283.5 K	0.05365
286.4 K	0.06767
288.3 K	0.0791
290.3 K	0.09122
293.2 K	0.1164
296.2 K	0.1424
298.2 K	0.1642
300.3 K	0.1892
303.1 K	0.2326
306.1 K	0.2838
308.2 K	0.3321
310.2 K	0.3804
313.2 K	0.4658

CCCCOC(=O)C(C)(C)C [butyl 2,2-dimethylpropanoate]
Settings	vapor or sublimation pressure [kPa]
273.6 K	0.0462
273.9 K	0.04812
274.7 K	0.0517
276.5 K	0.06076
278.4 K	0.06784
282.6 K	0.09472
283.2 K	0.09954
285.6 K	0.1239
288.3 K	0.1447
288.7 K	0.1514
291.7 K	0.1872
293.2 K	0.2073
294.8 K	0.2343
297.8 K	0.2886
298.1 K	0.2847
300.8 K	0.3473
303.3 K	0.4149
303.9 K	0.429
307 K	0.5176
308.3 K	0.5552
309 K	0.596
313.3 K	0.7473

CC(C)COC(=O)C(C)C [2-methylpropyl 2-methylpropanoate]
Settings	vapor or sublimation pressure [kPa]
274.2 K	0.1054
276.2 K	0.1253
278.2 K	0.1479
283.2 K	0.2118
288.2 K	0.2962
293.2 K	0.4346
298.2 K	0.6003
303.3 K	0.8274
308.4 K	1.137
311.2 K	1.363
313.4 K	1.497
316.2 K	1.851
319.2 K	2.224

COC(=O)CC(C)(C)C [methyl 3,3-dimethylbutanoate]
Settings	vapor or sublimation pressure [kPa]
273.9 K	0.3046
274.4 K	0.3169
275.9 K	0.3519
277.4 K	0.3954
278.7 K	0.436
279.5 K	0.4645
281.5 K	0.5226
282.5 K	0.5675
283.3 K	0.5937
285.5 K	0.6878
288.2 K	0.8223
288.6 K	0.8158
291.6 K	0.9977
293.2 K	1.131
294.6 K	1.195
297.7 K	1.436
298.2 K	1.533
301.8 K	1.854
303.2 K	2.042
303.8 K	2.089
306.9 K	2.498
308.2 K	2.737
309 K	2.783
313.2 K	3.591

CCCC(=O)OC(C)(C)CC [1,1-dimethylpropyl butanoate]
Settings	vapor or sublimation pressure [kPa]
274.5 K	0.04772
276.5 K	0.05746
278.2 K	0.06508
278.6 K	0.06692
280.6 K	0.07832
282.6 K	0.09058
283.3 K	0.09732
285.6 K	0.1128
288.2 K	0.1456
288.7 K	0.1441
291.7 K	0.1788
293.2 K	0.2021
294.8 K	0.22
297.4 K	0.2678
298.2 K	0.2935
300.4 K	0.3315
303.2 K	0.4074
303.5 K	0.402
306.5 K	0.4906
308.2 K	0.5588
309.5 K	0.5946

CCC(C)(C)OC(C)=O [1,1-dimethylpropyl acetate]
Settings	vapor or sublimation pressure [kPa]
273.7 K	0.3855
274 K	0.4017
275.5 K	0.4449
277.5 K	0.5063
278.6 K	0.5244
279.5 K	0.5659
281.6 K	0.6399
283.5 K	0.716
283.6 K	0.7353
286.6 K	0.878
288.4 K	0.9539
289.7 K	1.053
292.7 K	1.218
293.5 K	1.336
295.8 K	1.492
298.4 K	1.698
298.8 K	1.785
301.9 K	2.079
303.4 K	2.33
304.9 K	2.418
307.9 K	2.829
308.4 K	2.994

CCCCOC(=O)C(C)CC (centres undefined) [butanoic acid, 2-methyl-, butyl ester]
Settings	vapor or sublimation pressure [kPa]
274.2 K	0.02305
276.2 K	0.02587
278.2 K	0.03181
280.2 K	0.0362
283.2 K	0.04723
288.1 K	0.06951
293.1 K	0.1043
298.1 K	0.1517
303.2 K	0.2142
308.2 K	0.3099
313.3 K	0.4305
316.2 K	0.5454
319.2 K	0.6694

CCCCC(=O)OC [methyl pentanoate]
Settings	vapor or sublimation pressure
274.9 K	0.3386 kPa
275.2 K	0.3442 kPa
278.2 K	0.4198 kPa
279.4 K	0.4589 kPa
281.2 K	0.5173 kPa
282.6 K	0.5608 kPa
284.2 K	0.6396 kPa
284.3 K	0.6 kPa
284.5 K	0.6182 kPa
285.5 K	0.6907 kPa
287.4 K	0.7539 kPa
288.4 K	0.7888 kPa and 0.7837 kPa
288.5 K	0.8195 kPa
288.7 K	0.8268 kPa
289.2 K	0.873 kPa
290.3 K	0.9304 kPa
292.4 K	1.029 kPa
293.3 K	1.09 kPa
293.4 K	1.125 kPa
294.5 K	1.227 kPa
296.2 K	1.327 kPa
297.5 K	1.511 kPa
298.3 K	1.517 kPa
299.2 K	1.615 kPa and 1.582 kPa
302.2 K	1.974 kPa and 1.937 kPa
305.2 K	2.273 kPa
308.2 K	2.653 kPa
311.2 K	3.11 kPa

CCC(=O)OC(C)(C)CC [1,1-dimethylpropyl propanoate]
Settings	vapor or sublimation pressure [kPa]
273.9 K	0.1147
274.9 K	0.123
276.9 K	0.1423
278.9 K	0.1651
281 K	0.1902
283 K	0.2208
286 K	0.2725
289.1 K	0.3316
292.2 K	0.4061
295.2 K	0.4966
298.2 K	0.5971
301.2 K	0.7239
304.3 K	0.8484
307.4 K	1.025
310.4 K	1.237

CCCC(=O)OC [methyl butanoate]
Settings	vapor or sublimation pressure
274.3 K	1.06 kPa
276.4 K	1.292 kPa
278.2 K	1.397 kPa
279.4 K	1.492 kPa
281.3 K	1.627 kPa
281.6 K	1.705 kPa
283.4 K	1.854 kPa
283.7 K	1.965 kPa
285.5 K	2.102 kPa
285.8 K	2.24 kPa
288.3 K	2.537 kPa and 2.523 kPa and 2.466 kPa
290.3 K	2.927 kPa
291.2 K	3.085 kPa and 2.937 kPa
292.2 K	3.214 kPa
293.2 K	3.382 kPa
294.3 K	3.717 kPa
295.3 K	4.065 kPa
298.1 K	4.479 kPa
300.2 K	5.224 kPa
301.2 K	5.303 kPa
303.2 K	5.697 kPa

CCCCCC(=O)OC [methyl hexanoate]
Settings	vapor or sublimation pressure
280.7 K	0.1387 kPa
283.6 K	0.1707 kPa
284.6 K	0.1839 kPa
286.6 K	0.2147 kPa
287.6 K	0.2219 kPa
289.5 K	0.2598 kPa
290.5 K	0.2793 kPa and 0.2693 kPa
292.5 K	0.3111 kPa
293.3 K	0.3367 kPa
293.4 K	0.3489 kPa
293.5 K	0.3435 kPa
295.4 K	0.3851 kPa
296.4 K	0.4226 kPa
298.3 K	0.4594 kPa
298.4 K	0.4697 kPa
300.3 K	0.5403 kPa
303.3 K	0.6501 kPa
304.3 K	0.7261 kPa
308.3 K	0.8925 kPa
309.3 K	0.9193 kPa
312.3 K	1.147 kPa and 1.048 kPa
316.3 K	1.458 kPa
320.4 K	1.764 kPa
324.4 K	2.217 kPa
328.4 K	2.678 kPa
331.4 K	3.178 kPa

From the NIST ThermoML archive (doi:10.1016/j.fluid.2008.02.001)
